“And” between values parts separate entries of the source, which are not always exact repeats. Equal entries are not always repeated. Where two headings read alike, the source gives them in different places.
Columns and labels:
OAT2v1 = target: T1, OAT2v1 (Homo sapiens, UniProt Q9Y694); assay: Uptake transporter inhibition assay, OAT2v1; assay type: cell-based; conditions: OAT2v1; reference inhibitor 300 µM
T1 construct: expressed in transfected cells; host or cells: HEK cells
T1 sequence (Q9Y694 1-546 isoform Q9Y694-2): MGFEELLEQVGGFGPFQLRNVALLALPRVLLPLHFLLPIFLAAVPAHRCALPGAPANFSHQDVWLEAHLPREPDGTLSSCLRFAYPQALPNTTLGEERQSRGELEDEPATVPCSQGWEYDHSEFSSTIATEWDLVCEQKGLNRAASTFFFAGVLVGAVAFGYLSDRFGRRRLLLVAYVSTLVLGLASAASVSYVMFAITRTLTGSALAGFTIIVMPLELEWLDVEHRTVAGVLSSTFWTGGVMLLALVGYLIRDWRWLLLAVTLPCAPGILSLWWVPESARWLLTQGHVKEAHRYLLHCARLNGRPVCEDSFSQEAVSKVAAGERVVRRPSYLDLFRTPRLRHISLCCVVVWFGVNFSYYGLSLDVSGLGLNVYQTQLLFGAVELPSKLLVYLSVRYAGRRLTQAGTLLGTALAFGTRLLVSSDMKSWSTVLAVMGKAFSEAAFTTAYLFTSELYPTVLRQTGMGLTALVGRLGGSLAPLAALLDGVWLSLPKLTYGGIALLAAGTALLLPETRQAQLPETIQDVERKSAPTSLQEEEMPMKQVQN
Experimental: (§1) For the uptake transporter inhibition assay, cells were washed twice with 100 μL of the appropriate buffer (HK, pH 7.4) for OATP1B1, followed by HBSS (pH 7.4) for (NTCP, OAT1, OAT2v1, OATP1A2, and OATP1B3). Uptake experiments were carried out at 37 ± 1°C in 50 μL of the respective buffer containing the probe substrate and the compound or solvent.

NTCP = target: T2, NTCP (Homo sapiens, UniProt Q14973); assay: Uptake transporter inhibition assay, NTCP; assay type: cell-based; conditions: NTCP; reference inhibitor 300 µM
T2 construct: expressed in transfected cells; host or cells: HEK cells
T2 sequence (Q14973 1-349): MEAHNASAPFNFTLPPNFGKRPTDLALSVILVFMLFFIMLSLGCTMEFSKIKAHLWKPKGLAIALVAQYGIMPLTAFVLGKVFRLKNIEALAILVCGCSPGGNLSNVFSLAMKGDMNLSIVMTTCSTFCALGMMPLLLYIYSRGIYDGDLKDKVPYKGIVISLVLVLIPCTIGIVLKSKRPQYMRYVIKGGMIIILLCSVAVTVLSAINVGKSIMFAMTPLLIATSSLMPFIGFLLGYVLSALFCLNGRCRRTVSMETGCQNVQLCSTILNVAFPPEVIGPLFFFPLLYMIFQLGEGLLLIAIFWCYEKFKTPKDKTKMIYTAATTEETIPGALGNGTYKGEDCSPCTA
Experimental: as §1

OAT1 = target: T3, OAT1 (Homo sapiens, UniProt Q4U2R8); assay: Uptake transporter inhibition assay, OAT1; conditions: OAT1; reference inhibitor 300 µM;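 also: HEK293FT cells expressing OAT1 or mock, uptake of radiolabeled probe substrate at 37 °C in HBSS pH 7.4 with test compound or solvent, cell lysate read by liquid scintillation counting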
T3 sequence (Q4U2R8 1-563): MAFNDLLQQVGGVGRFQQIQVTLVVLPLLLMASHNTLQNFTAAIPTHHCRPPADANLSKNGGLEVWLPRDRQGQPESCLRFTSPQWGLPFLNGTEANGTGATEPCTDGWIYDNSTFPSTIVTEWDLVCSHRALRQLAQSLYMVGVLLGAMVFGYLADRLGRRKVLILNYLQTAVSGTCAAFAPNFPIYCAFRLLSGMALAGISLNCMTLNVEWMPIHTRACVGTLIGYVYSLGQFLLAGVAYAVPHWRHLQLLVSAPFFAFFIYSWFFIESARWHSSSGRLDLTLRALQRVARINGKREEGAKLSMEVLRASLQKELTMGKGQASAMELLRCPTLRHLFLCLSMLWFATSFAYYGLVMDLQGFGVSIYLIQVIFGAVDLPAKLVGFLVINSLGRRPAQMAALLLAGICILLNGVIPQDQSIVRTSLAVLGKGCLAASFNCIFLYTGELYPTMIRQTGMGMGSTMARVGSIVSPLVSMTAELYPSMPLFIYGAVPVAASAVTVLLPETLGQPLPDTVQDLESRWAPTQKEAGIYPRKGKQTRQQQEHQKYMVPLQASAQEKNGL
Experimental: (§2) For the uptake transporter inhibition assay, cells were washed twice with 100 μL of the appropriate buffer (HK, pH 7.4) for OATP1B1, followed by HBSS (pH 7.4) for (NTCP, OAT1, OAT2v1, OATP1A2, and OATP1B3). Uptake experiments were carried out at 37 ± 1°C in 50 μL of the respective buffer containing the probe substrate and the compound or solvent. […] After the experiment, cells were washed twice with 100 μL of cold appropriate buffer and lysed with 50 μL of 0.1 M NaOH. Radiolabeled probe substrate transport was determined by measuring an aliquot (35 μL) from each well for liquid scintillation counting.

MRP2 = MRP2 (Homo sapiens, UniProt Q92887); assay: Vesicular transport inhibition assay, MRP2; conditions: MRP2; reference inhibitor 200 µM;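 also: membrane vesicles with probe substrate plus 2 mM glutathione, incubated with 4 mM ATP or AMP (AMP as background control), vesicle-retained substrate measured by liquid scintillation counting; ATP 4 mM vs AMP background separates transporter uptake from diffusion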
Chain of MRP2 (Q92887 whole entry, the tested form may be a part): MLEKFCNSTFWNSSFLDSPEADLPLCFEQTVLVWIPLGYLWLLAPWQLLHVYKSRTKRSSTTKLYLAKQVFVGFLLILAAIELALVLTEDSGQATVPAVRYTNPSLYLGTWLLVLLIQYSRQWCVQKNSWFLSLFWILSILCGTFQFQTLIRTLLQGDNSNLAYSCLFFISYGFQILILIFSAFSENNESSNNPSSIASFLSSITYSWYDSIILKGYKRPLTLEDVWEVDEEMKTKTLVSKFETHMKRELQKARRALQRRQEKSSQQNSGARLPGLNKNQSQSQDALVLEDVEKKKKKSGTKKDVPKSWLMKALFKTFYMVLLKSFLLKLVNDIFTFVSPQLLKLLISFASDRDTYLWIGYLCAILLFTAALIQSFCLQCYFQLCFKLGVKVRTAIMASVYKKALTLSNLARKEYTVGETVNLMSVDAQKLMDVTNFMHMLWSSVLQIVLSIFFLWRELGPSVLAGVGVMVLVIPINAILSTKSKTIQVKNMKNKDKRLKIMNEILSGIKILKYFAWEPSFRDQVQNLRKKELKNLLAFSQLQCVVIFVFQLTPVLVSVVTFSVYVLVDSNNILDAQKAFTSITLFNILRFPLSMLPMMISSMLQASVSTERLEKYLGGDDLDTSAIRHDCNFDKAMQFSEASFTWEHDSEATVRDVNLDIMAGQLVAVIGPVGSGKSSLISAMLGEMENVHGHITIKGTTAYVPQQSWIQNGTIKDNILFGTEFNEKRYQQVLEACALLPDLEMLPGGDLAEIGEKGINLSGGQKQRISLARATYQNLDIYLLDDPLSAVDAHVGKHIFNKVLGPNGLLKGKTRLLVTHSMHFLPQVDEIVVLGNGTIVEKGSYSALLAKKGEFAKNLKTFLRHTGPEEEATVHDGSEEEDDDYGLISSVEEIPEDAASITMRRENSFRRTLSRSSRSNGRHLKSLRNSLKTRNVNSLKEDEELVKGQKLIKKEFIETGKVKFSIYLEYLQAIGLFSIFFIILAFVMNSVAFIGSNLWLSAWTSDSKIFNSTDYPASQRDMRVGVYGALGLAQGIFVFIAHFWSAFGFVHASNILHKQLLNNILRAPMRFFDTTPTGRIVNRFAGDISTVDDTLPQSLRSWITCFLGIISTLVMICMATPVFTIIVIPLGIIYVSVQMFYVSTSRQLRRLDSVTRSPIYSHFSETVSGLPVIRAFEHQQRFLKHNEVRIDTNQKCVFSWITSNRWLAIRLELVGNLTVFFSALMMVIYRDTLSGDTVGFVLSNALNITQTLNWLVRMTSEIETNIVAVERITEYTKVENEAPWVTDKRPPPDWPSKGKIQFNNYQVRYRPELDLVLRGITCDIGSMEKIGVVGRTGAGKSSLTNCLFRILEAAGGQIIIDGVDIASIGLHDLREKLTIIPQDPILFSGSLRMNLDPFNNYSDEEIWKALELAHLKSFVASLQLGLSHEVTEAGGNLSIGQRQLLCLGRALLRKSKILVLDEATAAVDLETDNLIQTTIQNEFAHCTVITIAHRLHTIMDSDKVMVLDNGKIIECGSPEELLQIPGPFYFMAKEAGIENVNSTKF
Experimental: In the vesicular transport inhibition assay (for BSEP, MRP) compounds were incubated with membrane vesicle preparations and the probe substrate. Incubations were carried out in the presence of 4 mM ATP or AMP to distinguish between transporter-mediated uptake and passive diffusion into the vesicles. For MRP2 and MRP3, reactions were carried out in the presence of 2 mM glutathione. Compounds were added to the reaction mixture in 0.75 μL of solvent (1% of the final incubation volume). […] Reactions were initiated by the addition of 25 μL of 12 mM MgATP (or 12 mM AMP in assay buffer as a background control) and preincubated separately. Reactions were quenched by the addition of 200 μL of ice-cold washing buffer and immediate filtration via glass fiber filters mounted on a 96-well plate (filter plate). The filters were washed (5 × 200 μL of ice-cold washing buffer), dried, and the amount of substrate inside the filtered vesicles was determined by liquid scintillation counting.

HepaRG spheroids = assay: HepaRG 3D spheroids, cell and mitochondrial health markers, 14 days; conditions: TIMEPOINT 336
Experimental: Hepatic spheroids were formed by seeding HepaRG™ cells into round-bottom ultra-low adhesion 96-well spheroid plates (Corning®) in 3D liver media with 0.5% DMSO, 100 U/mL penicillin, and 100 mg/L streptomycin. Cells were incubated at 37°C and 5% CO2 until spheroid formation and then compound-treated. The test compound was diluted in the vehicle, and serial dilutions were made in a 0.5% vehicle in HepaRG™ induction media. […] L-buthionine sulfoximine was used as positive control for GSH content, whereas rotenone was simultaneously used as a positive control for mitochondrial dysfunction and ATP content. At the end of the incubation period, the cells were loaded with the relevant dye for each cell health marker: DNA structure–Hoescht, GSH content–mBCL, ROS formation–DHE, mitochondrial dysfunction–MitoTracker, and cellular ATP content–CellTiter-Glo®, Promega. The plate was then scanned using an automated confocal fluorescent cellular imager, ArrayScan® XTI (Thermo Scientific Cellomics) at 37°C and 5% CO2. Further, the cellular ATP content was measured using CellTiter-Glo® (Promega, USA).

OATP1A2 = OATP1A2 (Homo sapiens, UniProt P46721); assay: Uptake transporter inhibition assay, OATP1A2; conditions: OATP1A2; reference inhibitor 500 µM;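 also: cellular uptake of a radiolabeled probe substrate in HBSS pH 7.4 at 37 °C with test compound or solvent, measured by liquid scintillation counting of cell lysates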
Chain of OATP1A2 (P46721 whole entry): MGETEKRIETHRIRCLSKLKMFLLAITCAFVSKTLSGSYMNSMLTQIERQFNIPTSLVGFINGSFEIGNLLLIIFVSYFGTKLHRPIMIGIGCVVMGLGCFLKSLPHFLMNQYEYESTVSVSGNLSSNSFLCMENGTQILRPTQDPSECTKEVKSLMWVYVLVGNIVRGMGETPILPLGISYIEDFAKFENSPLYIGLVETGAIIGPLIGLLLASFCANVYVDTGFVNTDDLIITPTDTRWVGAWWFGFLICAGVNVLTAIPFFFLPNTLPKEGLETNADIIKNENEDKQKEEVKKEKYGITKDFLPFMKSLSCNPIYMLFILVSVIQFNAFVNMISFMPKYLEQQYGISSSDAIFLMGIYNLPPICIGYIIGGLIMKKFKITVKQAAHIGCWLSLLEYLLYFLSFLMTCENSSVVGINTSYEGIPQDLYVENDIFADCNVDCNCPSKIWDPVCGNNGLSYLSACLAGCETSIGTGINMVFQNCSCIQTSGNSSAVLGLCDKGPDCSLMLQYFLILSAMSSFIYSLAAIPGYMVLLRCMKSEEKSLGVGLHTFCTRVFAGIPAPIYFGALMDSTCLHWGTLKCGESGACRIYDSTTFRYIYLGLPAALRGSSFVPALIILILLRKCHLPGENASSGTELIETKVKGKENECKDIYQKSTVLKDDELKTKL
Experimental: as §2

[1] = HepaRG spheroid, at the concentration (uM) given
[2] = HepaRG spheroid, plotted value at the concentration given

## COc1ccc2c(c1)c(CC(=O)O)c(C)n2C(=O)c1ccc(Cl)cc1 [Indomethacin]
OAT2v1
  Accumulation (counts per minute; CPM) HEK293FT-OAT2v1: 503 CPM and 467 CPM and 353 CPM and 367 CPM

## C[C@H](CCC(=O)NCCS(=O)(=O)O)[C@H]1CC[C@H]2[C@@H]3[C@H](O)C[C@@H]4C[C@H](O)CC[C@]4(C)[C@H]3CC[C@]12C [TCDC]
NTCP
  Accumulation (counts per minute; CPM) HEK293-NTCP: 257 CPM and 289 CPM and 184 CPM and 282 CPM
  Accumulation (counts per minute; CPM) HEK293FT-MOCK: 24 CPM and 25 CPM and 21 CPM and 27 CPM

## CCc1oc2ccccc2c1C(=O)c1cc(Br)c(O)c(Br)c1 [Benzbromarone]
OAT1
  Accumulation (counts per minute; CPM) HEK293FT-MOCK: 48 CPM and 31 CPM and 32 CPM and 38 CPM
  Accumulation (counts per minute; CPM) HEK293FT-OAT1: 76 CPM and 82 CPM and 74 CPM and 83 CPM
MRP2
  Accumulation (counts per minute; CPM) with AMP: 198 CPM and 209 CPM
  Accumulation (counts per minute; CPM) with ATP: 183 CPM and 176 CPM

## N#CC(C#N)=NNc1cccc(Cl)c1 [carbonyl cyanide 3-chlorophenylhydrazone]
HepaRG spheroids; CONC 0.04 uM
  Cellular ATP Mean Plotted Value: 1.06
  DNA structure Mean Plotted Value: 0.942
  Glutathione content Mean Plotted Value: 0.925
  Mitochondrial mass Mean Plotted Value: 1.13
  Mitochondrial membrane potential Mean Plotted Value: 1.05
  Oxidative stress Mean Plotted Value: 1.02
  Spheroid count Mean Plotted Value: 1
  Spheroid size Mean Plotted Value: 1.01
HepaRG spheroids; CONC 0.1 uM
  Cellular ATP Mean Plotted Value: 1.01
  DNA structure Mean Plotted Value: 1.05
  Glutathione content Mean Plotted Value: 0.914
  Mitochondrial mass Mean Plotted Value: 1.06
  Mitochondrial membrane potential Mean Plotted Value: 1.15
  Oxidative stress Mean Plotted Value: 1
  Spheroid count Mean Plotted Value: 1
  Spheroid size Mean Plotted Value: 1.04
HepaRG spheroids; CONC 0.4 uM
  Cellular ATP Mean Plotted Value: 0.966
  DNA structure Mean Plotted Value: 1.07
  Glutathione content Mean Plotted Value: 0.993
  Mitochondrial mass Mean Plotted Value: 0.994
  Mitochondrial membrane potential Mean Plotted Value: 1.07
  Oxidative stress Mean Plotted Value: 0.993
  Spheroid count Mean Plotted Value: 1
  Spheroid size Mean Plotted Value: 0.969
HepaRG spheroids; CONC 1 uM
  Cellular ATP Mean Plotted Value: 0.843
  DNA structure Mean Plotted Value: 0.905
  Glutathione content Mean Plotted Value: 0.819
  Mitochondrial mass Mean Plotted Value: 1.11
  Mitochondrial membrane potential Mean Plotted Value: 0.995
  Oxidative stress Mean Plotted Value: 1.12
  Spheroid count Mean Plotted Value: 1
  Spheroid size Mean Plotted Value: 0.994
HepaRG spheroids; CONC 4 uM
  Cellular ATP Mean Plotted Value: 0.0197
  DNA structure Mean Plotted Value: 0.726
  Glutathione content Mean Plotted Value: 0.176
  Mitochondrial mass Mean Plotted Value: 0.851
  Mitochondrial membrane potential Mean Plotted Value: 0.876
  Oxidative stress Mean Plotted Value: 1.36
  Spheroid count Mean Plotted Value: 1
  Spheroid size Mean Plotted Value: 0.828
HepaRG spheroids; CONC 10 uM
  Cellular ATP Mean Plotted Value: -0.000228
  DNA structure Mean Plotted Value: 0.0956
  Glutathione content Mean Plotted Value: 0.111
  Mitochondrial mass Mean Plotted Value: 0.763
  Mitochondrial membrane potential Mean Plotted Value: 0.627
  Oxidative stress Mean Plotted Value: 1.36
  Spheroid count Mean Plotted Value: 1
  Spheroid size Mean Plotted Value: 0.751
HepaRG spheroids; CONC 40 uM
  Cellular ATP Mean Plotted Value: -0.000179
  DNA structure Mean Plotted Value: 0.0736
  Glutathione content Mean Plotted Value: 0.0824
  Mitochondrial mass Mean Plotted Value: 0.515
  Mitochondrial membrane potential Mean Plotted Value: 0.236
  Oxidative stress Mean Plotted Value: 0.339
  Spheroid count Mean Plotted Value: 1
  Spheroid size Mean Plotted Value: 0.674
HepaRG spheroids; CONC 100 uM
  Cellular ATP Mean Plotted Value: 8.57e-5
  DNA structure Mean Plotted Value: 0.0501
  Glutathione content Mean Plotted Value: 0.0467
  Mitochondrial mass Mean Plotted Value: 0.488
  Mitochondrial membrane potential Mean Plotted Value: 0.132
  Oxidative stress Mean Plotted Value: 0.234
  Spheroid count Mean Plotted Value: 1
  Spheroid size Mean Plotted Value: 0.58
HepaRG spheroids; HepaRG spheroid
  Cellular ATP MEC: 0.829 µM
  DNA structure MEC: 3.51 µM
  Glutathione content MEC: 0.876 µM
  Mitochondrial mass MEC: 6.35 µM
  Mitochondrial membrane potential MEC: 5.82 µM
  Oxidative stress MEC: 1.46 µM
  Spheroid size MEC: 2.63 µM
HepaRG spheroids; [1]
  Cellular ATP MR (% @ concentration): 100%
  DNA structure MR (% @ concentration): 95%
  Glutathione content MR (% @ concentration): 91%
  Mitochondrial mass MR (% @ concentration): 52%
  Mitochondrial membrane potential MR (% @ concentration): 88%
  Oxidative stress MR (% @ concentration): 37%
  Spheroid size MR (% @ concentration): 35%
HepaRG spheroids; [2]
  Cellular ATP MR: -0.000228
  DNA structure MR: 0.0501
  Glutathione content MR: 0.0824
  Mitochondrial mass MR: 0.515
  Mitochondrial membrane potential MR: 0.132
  Oxidative stress MR: 1.36
  Spheroid size MR: 0.674
HepaRG spheroids; read-out: Cellular ATP AC50, HepaRG spheroid
  AC50: 1.63 µM
HepaRG spheroids; read-out: DNA structure AC50, HepaRG spheroid
  AC50: 5.13 µM
HepaRG spheroids; read-out: Glutathione content AC50, HepaRG spheroid
  AC50: 2.19 µM
HepaRG spheroids; read-out: Mitochondrial mass AC50, HepaRG spheroid
  AC50: 35.7 µM
HepaRG spheroids; read-out: Mitochondrial membrane potential AC50, HepaRG spheroid
  AC50: 12.4 µM
HepaRG spheroids; read-out: Oxidative stress AC50, HepaRG spheroid
  AC50: 15.4 µM
HepaRG spheroids; read-out: Spheroid count AC50, HepaRG spheroid
  AC50: > 100 µM
HepaRG spheroids; read-out: Spheroid size AC50, HepaRG spheroid
  AC50: > 40 µM

## O=C1OC(c2ccc(O)c(S(=O)(=O)O)c2)(c2ccc(O)c(S(=O)(=O)O)c2)c2c(Br)c(Br)c(Br)c(Br)c21 [Sulfobromophthalein]
OATP1A2
  Accumulation (counts per minute; CPM) HEK293FT-MOCK: 79 CPM and 76 CPM and 86 CPM
  Accumulation (counts per minute; CPM) HEK293FT-OATP1A2: 880 CPM and 817 CPM and 881 CPM and 862 CPM
